A value given as a limit tells only on which side of the number the result lay.

Usually EC50 stands for the concentration needed to bring the measured effect to its halfway point. A lower EC50 goes with a more potent agent.

In the experiment the target is T1, PKM2 (Homo sapiens, UniProt P14618).
T1 construct: PKM2 stock enzyme solution was diluted in Reaction Buffer
Kind of experiment: PKM2 Assay (activation, LDH-coupled NADH absorbance at 340 nm). The settings on record: activation of PKM2. The format is biochemical. How it is done: • PKM2 stock enzyme solution was diluted in Reaction Buffer • 2 μL of compound was added into each well first, and then 180 μL of the Reaction Mix was added. • Reaction mixture with compound (without ADP) were incubated for 30 minutes at 4° C. • Plates were re-equilibrated to room temperature prior to adding 20 μL ADP to initiate the reaction. • Reaction progress was measured as changes in absorbance at 340 nm wavelength at room temperature (25° C.) Reaction Mix: PKM2 (50 ng/well), ADP (0.7 mM), PEP (0.15 mM), NADH (180 μM), LDH (2 units) in Reaction Buffer Reaction Buffer: 100 mM KCl, 50 mM Tris pH 7.5, 5 mM MgCl2, 1 mM DTT, 0.03% BSA.

T1 sequence (P14618 whole entry): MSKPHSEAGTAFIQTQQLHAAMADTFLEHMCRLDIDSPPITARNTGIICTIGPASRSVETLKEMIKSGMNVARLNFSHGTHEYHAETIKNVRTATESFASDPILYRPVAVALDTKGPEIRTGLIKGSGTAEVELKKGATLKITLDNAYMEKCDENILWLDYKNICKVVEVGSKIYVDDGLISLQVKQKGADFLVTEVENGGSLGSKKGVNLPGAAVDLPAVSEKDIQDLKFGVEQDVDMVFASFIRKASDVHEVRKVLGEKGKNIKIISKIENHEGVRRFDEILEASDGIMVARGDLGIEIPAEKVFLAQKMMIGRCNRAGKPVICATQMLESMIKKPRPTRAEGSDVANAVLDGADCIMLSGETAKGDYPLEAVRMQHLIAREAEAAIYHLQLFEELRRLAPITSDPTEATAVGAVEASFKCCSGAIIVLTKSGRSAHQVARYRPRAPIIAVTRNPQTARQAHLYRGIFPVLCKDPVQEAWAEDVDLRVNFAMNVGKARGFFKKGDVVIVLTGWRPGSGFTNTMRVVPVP

On to `O=C(COc1ccccc1)N1CCN(S(=O)(=O)c2ccc3ccccc3c2)CC1`, for which the concentration giving a half-maximal response (EC50) was less than 10 µM.

As for `O=C(C1CCCCC1)N1CCN(S(=O)(=O)c2ccc3ccccc3c2)CC1`, the EC50 is less than 10 µM. The same measure for `O=C(CSc1ccc(Cl)cc1Cl)N1CCN(S(=O)(=O)c2ccc3ccccc3c2)CC1`: less than 10 µM.

`O=C(C1CC1c1ccc(C(F)(F)F)cc1)N1CCN(S(=O)(=O)c2cc(C3CC3)cc(C(F)(F)F)c2)CC1` (stereo not drawn) registered a concentration giving a half-maximal response (EC50) of less than 10 µM. Compound `O=C(COc1ccc(-n2cnnn2)cc1)N1CCN(S(=O)(=O)c2cccc3cccnc23)CC1` returned an EC50 of 10 to 100 µM. On to `O=C(COc1ccccc1)N1CCN(S(=O)(=O)c2ccc(F)cc2)CC1`, for which the EC50 was less than 10 µM. Compound `O=C(C1CCCCC1)N1CCN(S(=O)(=O)c2cccc(C(F)(F)F)c2)CC1` displayed an EC50 of less than 10 µM. On to `O=C(COc1ccccc1)N1CCN(S(=O)(=O)c2cccc3cccnc23)CC1`, for which the EC50 is less than 10 µM. For the compound `O=C(COc1ccccc1)N1CCN(S(=O)(=O)c2ccccc2)CC1`, the half-maximal effective concentration (EC50) was less than 10 µM. Compound `O=C(COc1cccnc1)N1CCN(S(=O)(=O)c2ccc3ccccc3c2)CC1` returned an EC50 of less than 10 µM. The same measure for `COc1ccc(Cl)cc1S(=O)(=O)N1CCN(C(=O)COc2ccc(-n3cnnn3)cc2)CC1`: 10 to 100 µM. In turn, `O=C(CSc1ccc(F)cc1)N1CCN(S(=O)(=O)c2ccc3ccccc3c2)CC1` registered an EC50 of less than 10 µM. `O=C(COc1ccc(-n2cnnn2)cc1)N1CCN(S(=O)(=O)c2ccc3ccccc3c2)CC1` had an EC50 of less than 10 µM. `O=C(OCc1ccccc1)N1CCN(S(=O)(=O)c2ccccc2)CC1` gave an EC50 of less than 10 µM. The same measure for `O=C(CNc1ccccc1)N1CCN(S(=O)(=O)c2ccc3ccccc3c2)CC1`: less than 10 µM; for `Cc1ccc(SCC(=O)N2CCN(S(=O)(=O)c3ccc4ccccc4c3)CC2)cc1`: less than 10 µM.

As for `O=C(Cc1ccc(C(F)(F)F)cc1)N1CCN(S(=O)(=O)c2ccc3ccccc3c2)CC1`, the half-maximal effective concentration (EC50) was less than 10 µM. For the compound `O=C(COc1ccc(-n2cnnn2)cc1)N1CCN(S(=O)(=O)c2cccc3ccccc23)CC1`, the EC50 is less than 10 µM. Regarding `Cc1cc(C)cc(OCC(=O)N2CCN(S(=O)(=O)c3ccc4ccccc4c3)CC2)c1`, the EC50 was less than 10 µM. For the compound `O=C(COc1ccc(-n2cnnn2)cc1)N1CCN(S(=O)(=O)c2cccn2-c2ncc(C(F)(F)F)cc2Cl)CC1`, the EC50 lay in the range of 10 to 100 µM.

On to `O=C(C1CC1c1ccc(C(F)(F)F)cc1)N1CCN(S(=O)(=O)c2ccc3ccccc3c2)CC1` (stereo not drawn), for which the EC50 was less than 10 µM.

`O=C(CC1CC1)N1CCN(S(=O)(=O)c2ccc3ccccc3c2)CC1` displayed an EC50 of less than 10 µM. With `CN1C(=O)C(=O)c2cc(S(=O)(=O)N3CCN(C(=O)COc4ccccc4)CC3)ccc21`, the EC50 was 10 to 100 µM. The compound `O=C(CCc1ccc(C(F)(F)F)cc1)N1CCN(S(=O)(=O)c2ccc3ccccc3c2)CC1` had a concentration for a half-maximal effect (EC50) of less than 10 µM.

Compound `O=C(CCc1ccccc1)N1CCN(S(=O)(=O)c2ccc3ccccc3c2)CC1` gave a concentration for a half-maximal effect (EC50) of less than 10 µM. `COc1ccc(OCC(=O)N2CCN(S(=O)(=O)c3ccc4ccccc4c3)CC2)cc1` showed a concentration for a half-maximal effect (EC50) of less than 10 µM. `O=C(COCc1ccccc1)N1CCN(S(=O)(=O)c2ccc3ccccc3c2)CC1` gave an EC50 of less than 10 µM. Compound `O=C(OCc1ccccc1)N1CCN(S(=O)(=O)c2ccc3ccccc3c2)CC1` showed an EC50 of less than 10 µM. For the compound `O=C(Cc1ccc(C(F)(F)F)cc1)N1CCN(S(=O)(=O)c2cc(Cl)cc(Cl)c2)CC1`, the EC50 lay in the range of 10 to 100 µM. `O=C(Cc1ccc(C(F)(F)F)cc1)N1CCN(S(=O)(=O)c2cc(C(F)(F)F)cc(C(F)(F)F)c2)CC1`: the concentration for a half-maximal effect (EC50) was greater than 100 µM. Regarding `CN1C(=O)COc2ccc(S(=O)(=O)N3CCN(C(=O)COc4ccccc4)CC3)cc21`, the EC50 was 10 to 100 µM.

Compound `O=C(COc1ccc(-n2cnnn2)cc1)N1CCN(S(=O)(=O)c2c(F)cccc2F)CC1` had an EC50 of less than 10 µM. The same measure for `CC(C)(C)OCC(=O)N1CCN(S(=O)(=O)c2ccc3sc(=O)sc3c2)CC1`: 10 to 100 µM; for `O=C(C1CC1c1ccc(C(F)(F)F)cc1)N1CCN(S(=O)(=O)c2ccc3c(c2)OCCO3)CC1` (stereo not drawn): less than 10 µM; for `O=C(Cc1ccc(C(F)(F)F)cc1)N1CCN(S(=O)(=O)c2cccc3ccccc23)CC1`: less than 10 µM.

`O=C(COc1ccc(-n2cnnn2)cc1)N1CCN(S(=O)(=O)c2ccc(F)cc2)CC1` came in with an EC50 of less than 10 µM. Regarding `O=C(COc1ccc(-n2cnnn2)cc1)N1CCN(S(=O)(=O)c2ccccc2)CC1`, the EC50 was less than 10 µM. Turning to `O=C(COc1ccc(C(F)(F)F)cc1)N1CCN(S(=O)(=O)c2ccc3c(c2)OCCO3)CC1`, the EC50 is greater than 100 µM. On to `COC(=O)c1ccc(OCC(=O)N2CCN(S(=O)(=O)c3ccc4ccccc4c3)CC2)cc1`, for which the concentration giving a half-maximal response (EC50) was less than 10 µM.

As to `Cc1ccc(OCC(=O)N2CCN(S(=O)(=O)c3ccc4ccccc4c3)CC2)cc1`, the 50% effective concentration (EC50) is less than 10 µM. On to `O=C(COc1ccccc1)N1CCN(S(=O)(=O)c2cccc3ccccc23)CC1`, for which the concentration giving a half-maximal response (EC50) was less than 10 µM. As to `O=C(OCc1cccnc1)N1CCN(S(=O)(=O)c2ccc3ccccc3c2)CC1`, the EC50 was less than 10 µM.

The values above are taken from patent publication US9115086B2, “Therapeutic compositions and related methods of use” (AGIOS PHARMACEUTICALS, INC., priority 2009, dated 2015).
